Laboratory results taken from the supplement of paper PMC8671470.

Key:
Conditions in all cases: 72 h
HEL [1] = test system: HEL
How it was run: (§1)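 Fifteen myeloid leukaemia cell lines were seeded in RPMI 1640 at a density titrated to the linear growth range. Each line went into 384-well plates with compounds acoustically pre-printed at five tenfold doses from 1 to 10,000 nM, in duplicate, and was incubated for 72 h at 37 °C with 5% CO2. Luminescent ATP viability was normalised to vehicle and to a positive control at 10 µM. The IC50 came from four-parameter log-logistic dose–response fits.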

NOMO-1 [2] = test system: NOMO-1
How it was run: as §1

MV4-11 [3] = test system: MV4-11
How it was run: as §1

ML-2 [4] = test system: ML-2
How it was run: as §1

SHI-1 [5] = test system: SHI-1
How it was run: as §1

LAMA-84 [6] = test system: LAMA-84
How it was run: as §1

K-562 [7] = test system: K-562
How it was run: as §1

KG-1 [8] = test system: KG-1
How it was run: as §1

KCL-22 [9] = test system: KCL-22
How it was run: as §1

KU-812 [10] = test system: KU-812
How it was run: as §1

MOLM-13 [11] = test system: MOLM-13
How it was run: as §1

Mono-Mac-6 [12] = test system: Mono-Mac-6
How it was run: as §1

THP-1 [13] = test system: THP-1
How it was run: as §1

HL-60 [14] = test system: HL-60
How it was run: as §1

BV-173 [15] = test system: BV-173
How it was run: as §1

HEL [16] = assay: cell viability (% survival relative to DMSO control, bortezomib = 0%); higher = less cytotoxic
How it was run: (§2)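 Percent survival is reported as the mean of duplicate wells. Cells from 10 AML and 5 CML lines were plated in 384-well plates containing compounds at 1, 10, 100, 1000 or 10000 nM and kept for 72 h at 37 °C in 5% CO2. Readout used CellTiter-Glo luminescence, scaled so that vehicle equals 100% and a 10 µM positive control equals 0%.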

NOMO-1 [17] = assay: as above
How it was run: as §2

MV4-11 [18] = assay: as above
How it was run: as §2

ML-2 [19] = assay: as above
How it was run: as §2

SHI-1 [20] = assay: as above
How it was run: as §2

LAMA-84 [21] = assay: as above
How it was run: as §2

K-562 [22] = assay: as above
How it was run: as §2

KG-1 [23] = assay: as above
How it was run: as §2

KCL-22 [24] = assay: as above
How it was run: as §2

KU-812 [25] = assay: as above
How it was run: as §2

MOLM-13 [26] = assay: as above
How it was run: as §2

Mono-Mac-6 [27] = assay: as above
How it was run: as §2

THP-1 [28] = assay: as above
How it was run: as §2

HL-60 [29] = assay: as above
How it was run: as §2

BV-173 [30] = assay: as above
How it was run: as §2

CN1CC(=O)N2[C@H](c3ccc4c(c3)OCO4)c3[nH]c4ccccc4c3C[C@@H]2C1=O [Tadalafil]
Conditions | IC50 (cell viability) [µM]
BV-173 [15] | > 10
HEL [1] | > 10
HL-60 [14] | > 10
K-562 [7] | > 10
KCL-22 [9] | > 10
KG-1 [8] | > 10
KU-812 [10] | > 10
LAMA-84 [6] | > 10
ML-2 [4] | > 10
MOLM-13 [11] | > 10
MV4-11 [3] | > 10
Mono-Mac-6 [12] | > 10
NOMO-1 [2] | > 10
SHI-1 [5] | > 10
THP-1 [13] | > 10

cell viability [%]
Conditions | 1 nM | 10 nM | 100 nM | 1000 nM | 10000 nM
BV-173 [30] | 95.5 | 87 | 89.6 | 96.8 | 88.3
HEL [16] | 103 | 77.5 | 93.1 | 98 | 94.7
HL-60 [29] | 106 | 75.2 | 107 | 72.9 | 117
K-562 [22] | 108 | 105 | 90.6 | 96.4 | 91
KCL-22 [24] | 103 | 89.2 | 92 | 101 | 81.7
KG-1 [23] | 107 | 98.4 | 99.8 | 103 | 99.4
KU-812 [25] | 98.8 | 87.8 | 99.2 | 106 | 96
LAMA-84 [21] | 101 | 97.9 | 96.8 | 102 | 103
ML-2 [19] | 95.6 | 94.1 | 92 | 101 | 94.9
MOLM-13 [26] | 106 | 85.3 | 98.4 | 97.9 | 73.3
MV4-11 [18] | 100 | 86.7 | 95.3 | 102 | 92.6
Mono-Mac-6 [27] | 99.8 | 93 | 94.8 | 95.4 | 99
NOMO-1 [17] | 97.8 | 95.1 | 96.6 | 105 | 108
SHI-1 [20] | 109 | 102 | 98.9 | 97.8 | 88.3
THP-1 [28] | 96.7 | 97.9 | 94.9 | 98.4 | 96.6
